Measured values reported in the NIST ThermoML archive (doi:10.1021/acs.jced.8b00157).
Where “and” joins values, the source holds several entries; their conditions need not be identical. Equal entries are not always repeated. Numbers after ± are expanded uncertainties.

Assay: an = ratio of the nth substance listed
Settings: 100 kPa, Liquid, Buoyancy - hydrostatic balance, a2 = 1.7

Structure (SMILES): [F][Al]([F])[F] [aluminum fluoride] + [F-].[K+]
- mass density (1188.2 K): 1843 ± 10 kg/m3
- mass density (1188.4 K): 1842 ± 11 kg/m3
- mass density (1188.6 K): 1842 ± 10 kg/m3
- mass density (1189.2 K): 1841 ± 10 kg/m3
- mass density (1189.7 K): 1841 ± 11 kg/m3
- mass density (1189.8 K): 1841 ± 10 kg/m3
- mass density (1190.6 K): 1840 ± 10 kg/m3
- mass density (1190.7 K): 1840 ± 10 kg/m3
- mass density (1190.9 K): 1840 ± 10 kg/m3
- mass density (1191.6 K): 1839 ± 10 kg/m3 and 1840 ± 10 kg/m3
- mass density (1191.7 K): 1839 ± 10 kg/m3
- mass density (1191.8 K): 1840 ± 10 kg/m3
- mass density (1192.2 K): 1839 ± 10 kg/m3
- mass density (1192.4 K): 1838 ± 10 kg/m3
- mass density (1192.7 K): 1838 ± 10 kg/m3
- mass density (1192.8 K): 1838 ± 10 kg/m3
- mass density (1193 K): 1839 ± 10 kg/m3
- mass density (1193.8 K): 1837 ± 10 kg/m3
- mass density (1194 K): 1838 ± 10 kg/m3
- mass density (1194.2 K): 1837 ± 10 kg/m3
- mass density (1194.6 K): 1837 ± 10 kg/m3
- mass density (1194.9 K): 1837 ± 11 kg/m3
- mass density (1195.3 K): 1836 ± 11 kg/m3
- mass density (1195.6 K): 1835 ± 10 kg/m3 and 1837 ± 10 kg/m3
- mass density (1195.9 K): 1835 ± 10 kg/m3
- mass density (1196.1 K): 1836 ± 10 kg/m3
- mass density (1196.3 K): 1835 ± 10 kg/m3
- mass density (1196.5 K): 1835 ± 10 kg/m3
- mass density (1197.1 K): 1835 ± 10 kg/m3
- mass density (1197.5 K): 1834 ± 10 kg/m3
- mass density (1197.7 K): 1834 ± 11 kg/m3
- mass density (1197.8 K): 1834 ± 11 kg/m3 and 1835 ± 11 kg/m3
- mass density (1198.1 K): 1834 ± 11 kg/m3
- mass density (1198.4 K): 1833 ± 11 kg/m3
- mass density (1198.9 K): 1833 ± 11 kg/m3
- mass density (1199.6 K): 1832 ± 11 kg/m3
- mass density (1199.9 K): 1833 ± 10 kg/m3
- mass density (1200.2 K): 1832 ± 11 kg/m3
- mass density (1200.5 K): 1831 ± 10 kg/m3
- mass density (1200.7 K): 1832 ± 11 kg/m3
- mass density (1200.8 K): 1831 ± 10 kg/m3 and 1832 ± 10 kg/m3
- mass density (1201.4 K): 1830 ± 11 kg/m3
- mass density (1201.7 K): 1830 ± 11 kg/m3 and 1831 ± 11 kg/m3
- mass density (1202.1 K): 1831 ± 11 kg/m3
- mass density (1202.2 K): 1832 ± 11 kg/m3
- mass density (1202.4 K): 1830 ± 11 kg/m3 and 1831 ± 11 kg/m3
- mass density (1202.9 K): 1829 ± 11 kg/m3 and 1831 ± 11 kg/m3
- mass density (1203 K): 1829 ± 11 kg/m3
- mass density (1203.6 K): 1829 ± 11 kg/m3
- mass density (1203.8 K): 1828 ± 11 kg/m3
- mass density (1203.9 K): 1828 ± 11 kg/m3
- mass density (1204 K): 1828 ± 11 kg/m3 and 1829 ± 11 kg/m3
- mass density (1204.3 K): 1828 ± 11 kg/m3
- mass density (1204.6 K): 1827 ± 10 kg/m3
- mass density (1204.7 K): 1827 ± 10 kg/m3
- mass density (1205 K): 1826 ± 11 kg/m3
- mass density (1205.6 K): 1826 ± 11 kg/m3
- mass density (1205.8 K): 1826 ± 11 kg/m3
- mass density (1206 K): 1827 ± 11 kg/m3
- mass density (1206.3 K): 1826 ± 11 kg/m3
- mass density (1206.6 K): 1826 ± 11 kg/m3
- mass density (1206.7 K): 1825 ± 11 kg/m3
- mass density (1207 K): 1826 ± 11 kg/m3
- mass density (1207.1 K): 1825 ± 11 kg/m3
- mass density (1207.3 K): 1824 ± 10 kg/m3
- mass density (1207.5 K): 1825 ± 10 kg/m3
- mass density (1207.6 K): 1824 ± 10 kg/m3
- mass density (1207.8 K): 1824 ± 11 kg/m3
- mass density (1207.9 K): 1825 ± 11 kg/m3
- mass density (1208.2 K): 1824 ± 12 kg/m3
- mass density (1208.4 K): 1823 ± 11 kg/m3
- mass density (1208.5 K): 1823 ± 11 kg/m3
- mass density (1208.7 K): 1822 ± 10 kg/m3
- mass density (1209.3 K): 1823 ± 10 kg/m3
- mass density (1209.7 K): 1823 ± 11 kg/m3
- mass density (1209.8 K): 1823 ± 11 kg/m3
- mass density (1210.1 K): 1821 ± 11 kg/m3
- mass density (1210.2 K): 1822 ± 11 kg/m3
- mass density (1210.5 K): 1821 ± 11 kg/m3
- mass density (1211 K): 1822 ± 11 kg/m3
- mass density (1211.2 K): 1822 ± 11 kg/m3
- mass density (1211.3 K): 1822 ± 11 kg/m3
- mass density (1211.4 K): 1821 ± 11 kg/m3
- mass density (1211.7 K): 1821 ± 11 kg/m3 and 1820 ± 11 kg/m3
- mass density (1211.8 K): 1822 ± 11 kg/m3
- mass density (1211.9 K): 1821 ± 11 kg/m3 and 1819 ± 11 kg/m3
- mass density (1212.3 K): 1820 ± 11 kg/m3 and 1819 ± 11 kg/m3
- mass density (1212.6 K): 1819 ± 11 kg/m3
- mass density (1212.9 K): 1820 ± 11 kg/m3
- mass density (1213.1 K): 1820 ± 11 kg/m3
- mass density (1213.3 K): 1820 ± 11 kg/m3
- mass density (1213.5 K): 1819 ± 11 kg/m3
- mass density (1213.7 K): 1820 ± 11 kg/m3
- mass density (1213.8 K): 1819 ± 11 kg/m3
- mass density (1214 K): 1819 ± 12 kg/m3 and 1818 ± 12 kg/m3
- mass density (1214.2 K): 1817 ± 11 kg/m3
- mass density (1214.6 K): 1819 ± 11 kg/m3
- mass density (1214.7 K): 1819 ± 11 kg/m3
- mass density (1215.1 K): 1819 ± 11 kg/m3
- mass density (1215.2 K): 1819 ± 11 kg/m3 and 1816 ± 11 kg/m3
- mass density (1215.5 K): 1818 ± 11 kg/m3
- mass density (1215.6 K): 1816 ± 11 kg/m3
- mass density (1216 K): 1815 ± 12 kg/m3
- mass density (1216.7 K): 1814 ± 11 kg/m3
- mass density (1217 K): 1814 ± 11 kg/m3
- mass density (1217.5 K): 1813 ± 12 kg/m3
- mass density (1218.2 K): 1813 ± 11 kg/m3
- mass density (1218.7 K): 1812 ± 11 kg/m3
- mass density (1219.2 K): 1811 ± 13 kg/m3 and 1812 ± 12 kg/m3
- mass density (1220.3 K): 1810 ± 11 kg/m3
- mass density (1220.6 K): 1809 ± 13 kg/m3
- mass density (1220.9 K): 1810 ± 13 kg/m3
- mass density (1221.8 K): 1809 ± 11 kg/m3
- mass density (1222.2 K): 1808 ± 11 kg/m3
- mass density (1222.3 K): 1808 ± 11 kg/m3
- mass density (1222.7 K): 1807 ± 12 kg/m3
- mass density (1223.3 K): 1807 ± 11 kg/m3
- mass density (1223.7 K): 1805 ± 12 kg/m3
- mass density (1223.8 K): 1806 ± 11 kg/m3
